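A five-concentration, 48-hour dose response in 96-well plates underlies each endpoint, interpolated linearly between surrounding concentrations. TGI is the concentration that stops growth completely.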 Bounds are passed on as bounds.

For one assay, the system named is HL-60(TB) leukemia. In words: NCI-60 cell line screen, 48 h.
`CC12CC(c3ccccc3O1)C(C(=O)Nc1ccc(F)cc1)C(=O)N2` (stereo not drawn) registered a TGI of over 100 µM.

Turning to `COc1ccc(C2C(Cl)C(=O)N2NC(=O)c2ccc(NC(C)=O)cc2)cc1` (stereo not drawn), the TGI was over 100 µM.

As for `Cc1c(Cl)cccc1NC(=O)C(=O)C1C(=O)CC(C)(C)CC1=O`, the TGI is over 100 µM.

`O=C1O[C@@H](c2ccccc2)C[C@@H]1CN1CCOCC1` had a TGI of over 100 µM.

For the compound `COc1ccc2nc(-c3ccc(OCc4ccccc4)cc3)ccc2c1`, the TGI is over 100 µM.

As for `COC1(C)CC2N(C(=O)c3ccccc3)N=C(c3ccccc3)CC2(C)O1` (stereo not drawn), the TGI was over 100 µM.

Turning to `CCOC(=O)C(OCC1CC=CCC1)Sc1ccccc1` (stereo not drawn), the TGI is over 100 µM.

The test system of another assay is HCC-2998 colon. In words: NCI-60 cell line screen, 48 h.
Regarding `Cc1cn(C2CC(N)C(CN)O2)c(=O)[nH]c1=O` (stereo not drawn), the TGI is over 100 µM.

In the case of `Nc1nc2ncc(SCc3ccc(C(=O)NC(CCC(=O)O)C(=O)O)cc3)cc2c(=O)[nH]1` (stereo not drawn), the TGI was over 100 µM.

For `CC(C)CC(N)C(=O)OCN1C(=O)C2C3C=CC(C2C1=O)C1C2C(=O)N(COC(=O)C(N)CC(C)C)C(=O)C2C31` (stereo not drawn), the TGI is over 100 µM.

Turning to `O=C1CC(O)c2c1csc2Br` (stereo not drawn), the TGI is 44 µM.

`CCCCCCCCCC[C@@H](O)[C@H]1CC[C@H]([C@H]2CC[C@H]([C@H](O)CCCCCCCCCC[C@@H]3CC(CC(C)=O)C(=O)O3)O2)O1` (stereo partly drawn) gave a TGI of over 50 µM.

Take `COC(=O)c1cc(CC(C)C)c2c(c1)[nH]c1ccccc12`: the TGI was over 100 µM.

The compound `C[N+](C)(C)CC(=O)N/N=c1\cc(C(=O)Nc2ccc(N=O)cc2C#N)oc2cc(O)ccc12` returned a TGI of over 100 µM.

Compound `OCC1CCCC(n2cnc3c(=S)nc[nH]c32)O1` (stereo not drawn) showed a TGI of over 100 µM.

Take `N#CCCN(c1ccc(C=Nc2cccc([N+](=O)[O-])c2)cc1)S(=O)(=O)c1ccccc1`: the TGI was over 100 µM.

`COc1ccc(/C(=C/n2ccnc2)C(=O)c2ccc(OC)c(OC)c2)cc1` registered a TGI of over 100 µM.

For the compound `Clc1cc(N/N=C(/c2ccccc2)c2ncccn2)ncn1`, the TGI is over 100 µM.

`O=C1CC2(C[C@@H]3CCCCCCCCC[C@@H](C3)C2)N1` (stereo partly drawn) returned a TGI of 31.9 µM.

In turn, `CC(C)C(Sc1nc(-c2ccccc2)c(-c2ccccc2)[nH]1)C(=O)NNC(=S)Nc1ccccc1` (stereo not drawn) showed a TGI of 17.6 µM.

`COC1O[C@H]2CCN(C(=O)OCc3ccccc3)[C@H]2[C@H]1OCc1ccccc1` (stereo partly drawn) displayed a TGI of over 100 µM.

Compound `CC12CC(c3ccccc3O1)C(C(=O)Nc1ccc(F)cc1)C(=O)N2` (stereo not drawn) had a TGI of over 100 µM.

Compound `Cc1c(Cl)cccc1NC(=O)C(=O)C1C(=O)CC(C)(C)CC1=O` came in with a TGI of over 100 µM.

In turn, `O=C1O[C@@H](c2ccccc2)C[C@@H]1CN1CCOCC1` displayed a TGI of over 100 µM.

The compound `COc1ccc2nc(-c3ccc(OCc4ccccc4)cc3)ccc2c1` yielded a TGI of over 100 µM.

In turn, `COC1(C)CC2N(C(=O)c3ccccc3)N=C(c3ccccc3)CC2(C)O1` (stereo not drawn) yielded a TGI of over 100 µM.

Take `O=c1oc2ccccc2c(O)c1C(c1cc(OCc2ccccc2)cc(OCc2ccccc2)c1)c1c(O)c2ccccc2oc1=O`: the TGI amounted to 11.9 µM.

`Nc1ccccc1Nc1ccccc1C(=O)[O-].Nc1ccccc1Nc1ccccc1C(=O)[O-].[Cu+2]` displayed a TGI of over 100 µM.

`Cc1cc(-c2nc3ccccc3s2)ccc1NS(=O)(=O)O`: the TGI was over 100 µM.

`CCOC(=O)C(OCC1CC=CCC1)Sc1ccccc1` (stereo not drawn) registered a TGI of over 100 µM.

In the case of `COc1cc(COC(=O)N[C@H](C(=O)O)C(C)(C)C)c([N+](=O)[O-])cc1OC`, the TGI is over 100 µM.

For `Cc1c(/C=N\NC(=S)N2CCN(C(=S)N/N=C\c3c(C)n(C)n(-c4ccccc4)c3=O)CC2)c(=O)n(-c2ccccc2)n1C`, the TGI was over 100 µM.

`Cc1cc2c(c(C(=O)NCCC(=O)O)c1)Oc1c(cc(C)cc1C(=O)NCCC(=O)O)S2`: the TGI is over 100 µM.

The next assay deals with MDA-N. In words: NCI-60 cell line screen, 48 h.
Compound `Cc1cn(C2CC(N)C(CN)O2)c(=O)[nH]c1=O` (stereo not drawn) yielded a TGI of over 100 µM.

Take `Nc1nc2ncc(SCc3ccc(C(=O)NC(CCC(=O)O)C(=O)O)cc3)cc2c(=O)[nH]1` (stereo not drawn): the TGI was over 100 µM.

For the compound `O=C1CC(O)c2c1csc2Br` (stereo not drawn), the TGI was 83.4 µM.

For the compound `OCC1CCCC(n2cnc3c(=S)nc[nH]c32)O1` (stereo not drawn), the TGI was over 100 µM.

As to `Clc1cc(N/N=C(/c2ccccc2)c2ncccn2)ncn1`, the TGI was over 100 µM.

As for `CCCN=C1CC(C)Nc2ccccc2N1` (stereo not drawn), the TGI is over 100 µM.

`CC12CC(c3ccccc3O1)C(C(=O)Nc1ccc(F)cc1)C(=O)N2` (stereo not drawn) returned a TGI of over 100 µM.

In the case of `N#C/C(=C\NC(=S)Nc1ccc(S(=O)(=O)Nc2ccccn2)cc1)C(N)=O`, the TGI was over 100 µM.

The compound `Cc1cc(-c2nc3ccccc3s2)ccc1NS(=O)(=O)O` registered a TGI of over 100 µM.

Regarding `COc1cc(COC(=O)N[C@H](C(=O)O)C(C)(C)C)c([N+](=O)[O-])cc1OC`, the TGI is over 100 µM.

The compound `Cc1cc2c(c(C(=O)NCCC(=O)O)c1)Oc1c(cc(C)cc1C(=O)NCCC(=O)O)S2` gave a TGI of over 100 µM.

Another assay relates to MDA-MB-231 breast. Nature of the assay: NCI-60 cell line screen, 48 h.
Compound `O=C1CC(O)c2c1csc2Br` (stereo not drawn) displayed a TGI of 55 µM.

The compound `CCCCCCCCCC[C@@H](O)[C@H]1CC[C@H]([C@H]2CC[C@H]([C@H](O)CCCCCCCCCC[C@@H]3CC(CC(C)=O)C(=O)O3)O2)O1` (stereo partly drawn) displayed a TGI of over 50 µM.

On to `OCC1CCCC(n2cnc3c(=S)nc[nH]c32)O1` (stereo not drawn), for which the TGI is over 100 µM.

Regarding `Clc1cc(N/N=C(/c2ccccc2)c2ncccn2)ncn1`, the TGI was determined as 82.1 µM.

For the compound `CCCN=C1CC(C)Nc2ccccc2N1` (stereo not drawn), the TGI is over 100 µM.

`CC(C)(C)OC(=O)NC(C)(C)C(=O)NCCC(=O)O` gave a TGI of over 100 µM.

Compound `N#C/C(=C\NC(=S)Nc1ccc(S(=O)(=O)Nc2ccccn2)cc1)C(N)=O` displayed a TGI of over 100 µM.

As to `O=c1oc2ccccc2c(O)c1C(c1cc(OCc2ccccc2)cc(OCc2ccccc2)c1)c1c(O)c2ccccc2oc1=O`, the TGI worked out at 34.5 µM.

As for `Cc1cc(-c2nc3ccccc3s2)ccc1NS(=O)(=O)O`, the TGI was over 100 µM.

In turn, `Cc1c(/C=N\NC(=S)N2CCN(C(=S)N/N=C\c3c(C)n(C)n(-c4ccccc4)c3=O)CC2)c(=O)n(-c2ccccc2)n1C` showed a TGI of 73.9 µM.

`Cc1cc2c(c(C(=O)NCCC(=O)O)c1)Oc1c(cc(C)cc1C(=O)NCCC(=O)O)S2` registered a TGI of over 100 µM.

Another assay concerns A549 NSCLC. Nature of the assay: NCI-60 cell line screen, 48 h.
Regarding `Cc1cn(C2CC(N)C(CN)O2)c(=O)[nH]c1=O` (stereo not drawn), the TGI was over 100 µM.

As for `Nc1nc2ncc(SCc3ccc(C(=O)NC(CCC(=O)O)C(=O)O)cc3)cc2c(=O)[nH]1` (stereo not drawn), the TGI is over 100 µM.

In the case of `CC(C)CC(N)C(=O)OCN1C(=O)C2C3C=CC(C2C1=O)C1C2C(=O)N(COC(=O)C(N)CC(C)C)C(=O)C2C31` (stereo not drawn), the TGI was over 100 µM.

In the case of `O=C1CC(O)c2c1csc2Br` (stereo not drawn), the TGI is over 100 µM.

Consider `CCCCCCCCCC[C@@H](O)[C@H]1CC[C@H]([C@H]2CC[C@H]([C@H](O)CCCCCCCCCC[C@@H]3CC(CC(C)=O)C(=O)O3)O2)O1` (stereo partly drawn), for which the TGI was over 50 µM.

As for `COC(=O)c1cc(CC(C)C)c2c(c1)[nH]c1ccccc12`, the TGI was over 100 µM.

In the case of `C[N+](C)(C)CC(=O)N/N=c1\cc(C(=O)Nc2ccc(N=O)cc2C#N)oc2cc(O)ccc12`, the TGI was over 100 µM.

Take `OCC1CCCC(n2cnc3c(=S)nc[nH]c32)O1` (stereo not drawn): the TGI was over 100 µM.

The values are drawn from PubChem BioAssay (NCI).
